In general, IC50 refers to the concentration that inhibits the measured activity by half.

19 compounds from ChEMBL document CHEMBL6134804, “Identifying thiourea-based hybrids of quinazoline and oxospirochromane as inhibitors of Plasmodium cysteine proteases arresting the parasitic growth at the early trophozoite stage” (Bioorg Med Chem Lett, 2025) can be followed below.

Calls of active or inactive are those of the source. The calls are words filed in the database; no cut-off is given here.

In data set [1] the test system is Plasmodium falciparum. Nature of the data set: Antiplasmodial activity against ring-stage Plasmodium falciparum assessed as enlarged feeding vacuoles with hemoglobin accumulation at 3 times IC50 concentration measured after 48 hrs by Giemsa staining based analysis. It is filed as functional, organism-based.
Data set [2] concerns Plasmodium falciparum. The experiment in a line: Antiplasmodial activity against sorbitol-synchronized ring stage chloroquine sensitive Plasmodium falciparum 3D7 infected in human erythrocytes assessed as parasitic growth inhibition incubated for 48 to 50 hrs by SYBR Green 1 based microtiter plate spectrofluorimeteric analysis. It is filed as functional, organism-based. Conditions: 3D7, Erythrocyte.

Data set [3] in a line: Selectivity index, ratio of IC50 for cytotoxicity against human […] cells to antiplasmodial activity against sorbitol-synchronized ring stage chloroquine resistant Plasmodium falciparum W2 infected in human erythrocytes. It is filed as cell-based. Conditions: read-out: Ratio IC50.
Data set [4] is described as follows: Inhibition of Plasmodium falcipain-2 using Z-Leu-Arg-AMC as substrate preincubated for 30 mins followed by substrate addition and measured after 30 mins by microtiter plate spectrofluorimeteric analysis.
Data set [5] in a line: Selectivity index, ratio of IC50 for cytotoxicity against human […] cells to antiplasmodial activity against sorbitol-synchronized ring stage chloroquine sensitive Plasmodium falciparum 3D7 infected in human erythrocytes. Format: cell-based. Conditions: read-out: Ratio IC50.
Data set [6] can be described thus: Selectivity index, ratio of IC50 for cytotoxicity against African green monkey Vero cells to antiplasmodial activity against sorbitol-synchronized ring stage chloroquine sensitive Plasmodium falciparum 3D7 infected in human erythrocytes. Format: toxicity, cell-based. Conditions: read-out: Ratio IC50.
The nature of data set [7]: Inhibition of Plasmodium falcipain-3 using Z-Leu-Arg-AMC as substrate preincubated for 30 mins followed by substrate addition and measured after 30 mins by microtiter plate spectrofluorimeteric analysis.
Data set [8] has as its system Plasmodium falciparum. Nature of the data set: Antiplasmodial activity against ring-stage Plasmodium falciparum assessed as reduction in formation of new rings at 3 times IC50 concentration measured after 48 hrs by Giemsa staining based analysis. Format: functional, organism-based.
The test system of another data set is A549. Nature of the data set: Cytotoxicity against human A549 cells assessed as inhibition of cell growth incubated for 24 hrs by MTT assay. It is filed as functional, cell-based. Conditions: A549, 24 h. A general note: Tetrazolium assays rely on reduction of a dye to a coloured formazan, in cell work by metabolically active cells.
Data set [9] concerns Plasmodium falciparum. The experiment in a line: Antiplasmodial activity against ring stage of Plasmodium falciparum assessed as developmental arrest at early trophozoite stage at 3 times IC50 concentration measured after 48 hrs by Giemsa staining based analysis. Format: functional, organism-based.
Data set [10] in a line: Hemolytic activity in human Red blood cells assessed as hemolysis at 100 uM incubated for 2 hrs by spectrofluorimetric analysis. Format: toxicity, cell-based. Conditions: erythrocyte.
Data set [11] is described as follows: Resistance index, ratio of IC50 for antiplasmodial activity against chloroquine sensitive Plasmodium falciparum 3D7 infected in human erythrocytes to antiplasmodial activity against chloroquine resistant Plasmodium falciparum W2 infected in human erythrocytes. Format: functional.
The test system of data set [12] is Plasmodium falciparum. The experiment in a line: Antiplasmodial activity against sorbitol-synchronized ring stage chloroquine resistant Plasmodium falciparum W2 infected in human erythrocytes assessed as parasitic growth inhibition incubated for 48 to 50 hrs by SYBR Green 1 based microtiter plate spectrofluorimeteric analysis. It is filed as functional, organism-based. Conditions: W2, Erythrocyte.

Data set [13] can be described thus: Selectivity index, ratio of IC50 for cytotoxicity against African green monkey Vero cells to antiplasmodial activity against sorbitol-synchronized ring stage chloroquine resistant Plasmodium falciparum W2 infected in human erythrocytes. Conditions: read-out: Ratio IC50. Format: toxicity, cell-based.
The nature of data set [14]: Cytotoxicity against African green monkey Vero cells assessed as reduction in cell viability incubated for 72 hrs by MTT assay. It is filed as toxicity, cell-based. Conditions: African green monkey (Chlorocebus sabaeus).
Data set [15] can be described thus: Inhibition of Plasmodium falciparum ATP4.

Turning to `O=C1CC2(CCN(c3nc(N4CCN(C(=S)Nc5ccc(F)c(Cl)c5)CC4)nc4ccccc34)CC2)Oc2ccccc21`, the outcome with Plasmodium falciparum [1], with Plasmodium falciparum [8] and with Plasmodium falciparum [9] was Active. Moreover, the IC50 amounted to 3.18 µM with Plasmodium falciparum [2]; 3.9 µM in [4]; 4.9 µM in [7]; 58.3 µM with A549; 3.56 µM with Plasmodium falciparum [12]. Also, the selectivity ratio in [3] was 16.4; in [5] it was 18.3; in [6] it was above 314; in data set [13], above 281. Further, the Activity result in data set [10] was “Non-toxic”. In addition, in [11], the “Ratio IC50” value stood at 0.89. The IC50 at 72 h in data set [14] was above 1000 µM.
With `COc1cccc(NC(=S)N2CCN(c3nc(N4CCC5(CC4)CC(=O)c4ccccc4O5)c4ccccc4n3)CC2)c1`, the IC50 in the data set on Plasmodium falciparum [2] was 5.68 µM; in the data set with Plasmodium falciparum [12] it was 3.87 µM. The “Ratio IC50” value in [11] worked out at 1.47.
For `Cc1cccc(C)c1NC(=S)N1CCN(c2nc(N3CCC4(CC3)CC(=O)c3ccccc3O4)c3ccccc3n2)CC1`, the result with Plasmodium falciparum [1], with Plasmodium falciparum [8] and with Plasmodium falciparum [9] was Active. In addition, the IC50 in the data set on Plasmodium falciparum [2] was 4.83 µM; in data set [4], 5.9 µM; in data set [7], 6.4 µM; in the data set with A549 it was 102 µM; in the data set on Plasmodium falciparum [12] it was 7.12 µM. Also, the selectivity ratio is 14.3 in data set [3], 21 in data set [5], above 207 in data set [6] and above 140 in data set [13]. Also, the Activity result in data set [10] is reported as “Non-toxic”. For the same compound, the “Ratio IC50” value in [11] amounted to 0.68. Also, the IC50 at 72 h in data set [14] was above 1000 µM.
Take `CCc1nc(N)nc(N)c1-c1ccc(Cl)cc1` [PYRIMETHAMINE]: in the data set on Plasmodium falciparum [12], the IC50 was 0.129 µM.
For the compound `COc1ccc(NC(=S)N2CCN(c3nc(N4CCC5(CC4)CC(=O)c4ccccc4O5)c4ccccc4n3)CC2)cc1`, the IC50 with Plasmodium falciparum [2] is 23.3 µM; in the data set with Plasmodium falciparum [12], above 15 µM.
Consider `O=C1CC2(CCN(c3nc(N4CCN(C(=S)NCc5ccccc5)CC4)nc4ccccc34)CC2)Oc2ccccc21`, for which the IC50 with Plasmodium falciparum [2] came out at 4.79 µM; in data set [4] it was 10.4 µM; in [7] it was 10.8 µM; in the data set with A549 it was 214 µM; in the data set with Plasmodium falciparum [12], 14.4 µM. Further, the selectivity ratio in [3] was 14.9; in data set [5], 44.7; in [6], above 209; in data set [13], above 69.6. For the same compound, the “Ratio IC50” value in [11] amounted to 0.33. Also, the IC50 at 72 h in data set [14] was above 1000 µM.
Take `O=C1CC2(CCN(c3nc(N4CCN(C(=S)Nc5cccc(Cl)c5)CC4)nc4ccccc34)CC2)Oc2ccccc21`: the IC50 in the data set with Plasmodium falciparum [2] is 6.37 µM; in the data set with Plasmodium falciparum [12], above 15 µM.
In the case of `O=C1CC2(CCN(c3nc(N4CCN(C(=S)Nc5ccc(F)cc5)CC4)nc4ccccc34)CC2)Oc2ccccc21`, the IC50 is 4.66 µM in the data set on Plasmodium falciparum [2]; 11.4 µM in data set [4]; 14.4 µM in [7]; 307 µM in the data set with A549; 8.98 µM in the data set on Plasmodium falciparum [12]. For the same compound, the selectivity ratio in [3] was 34.1; in data set [5] it was 65.8; in data set [6], above 215; in data set [13], above 111. Further, in data set [11], the “Ratio IC50” value worked out at 0.52. Further, the 50% inhibitory concentration (IC50) at 72 h in data set [14] was above 1000 µM.
`C[C@H]1Cc2c([nH]c3cc(Cl)c(F)cc23)[C@@]2(N1)C(=O)Nc1ccc(Cl)cc12` [CIPARGAMIN] yielded an IC50 in data set [15] of 0.001 µM.
As for `O=C1CC2(CCN(c3nc(N4CCN(C(=S)Nc5ccccc5Cl)CC4)nc4ccccc34)CC2)Oc2ccccc21`, the result in the data set on Plasmodium falciparum [1], in the data set on Plasmodium falciparum [8] and in the data set on Plasmodium falciparum [9] was Active. In addition, the IC50 with Plasmodium falciparum [2] amounted to 3.98 µM; in data set [4] it was 4.6 µM; in data set [7], 5.9 µM; in the data set with A549, 67.2 µM; in the data set on Plasmodium falciparum [12] it was 4.43 µM. In addition, the selectivity ratio is 15.2 in data set [3], 16.9 in [5], above 251 in data set [6] and above 226 in data set [13]. Besides, in [10], the Activity entry is listed as “Non-toxic”. Also, the “Ratio IC50” value in data set [11] stood at 0.9. Also, in [14], the IC50 at 72 h is above 1000 µM.
Turning to `O=C1CC2(CCN(c3nc(N4CCN(C(=S)Nc5ccc(F)cc5F)CC4)nc4ccccc34)CC2)Oc2ccccc21`, the figures for the IC50 in the data set with Plasmodium falciparum [2] and in the data set on Plasmodium falciparum [12] were 5.28 µM and above 15 µM, respectively.
As for `O=C1CC2(CCN(c3nc(N4CCN(C(=S)Nc5ccc(Br)cc5)CC4)nc4ccccc34)CC2)Oc2ccccc21`, the IC50 in the data set with Plasmodium falciparum [2] amounted to 7.29 µM; in the data set on Plasmodium falciparum [12] it was 4.84 µM. Moreover, the “Ratio IC50” value in [11] is 1.51.
As to `O=C1CC2(CCN(c3nc(N4CCN(C(=S)Nc5cccc(C(F)(F)F)c5)CC4)nc4ccccc34)CC2)Oc2ccccc21`, the IC50 was 7.97 µM in the data set with Plasmodium falciparum [2] and above 15 µM with Plasmodium falciparum [12].
Consider `O=C1CC2(CCN(c3nc(N4CCN(C(=S)Nc5ccc(OC(F)(F)F)cc5)CC4)nc4ccccc34)CC2)Oc2ccccc21`, for which the figures for the IC50 in the data set on Plasmodium falciparum [2] and in the data set with Plasmodium falciparum [12] were 3.88 µM and above 15 µM, respectively.
For `O=C1CC2(CCN(c3nc(N4CCN(C(=S)Nc5ccc(F)c(F)c5)CC4)nc4ccccc34)CC2)Oc2ccccc21`, the half-inhibitory concentration (IC50) is 17.7 µM with Plasmodium falciparum [2] and above 15 µM in the data set with Plasmodium falciparum [12].
For `Cc1ccc(NC(=S)N2CCN(c3nc(N4CCC5(CC4)CC(=O)c4ccccc4O5)c4ccccc4n3)CC2)cc1`, the figures for the half-inhibitory concentration (IC50) in the data set with Plasmodium falciparum [2] and in the data set on Plasmodium falciparum [12] were 16.1 µM and above 15 µM, respectively.
For `O=C1CC2(CCN(c3nc(N4CCN(C(=S)Nc5ccccc5)CC4)nc4ccccc34)CC2)Oc2ccccc21`, in that order: 24.7 µM and above 15 µM.
In the case of `COc1ccccc1NC(=S)N1CCN(c2nc(N3CCC4(CC3)CC(=O)c3ccccc3O4)c3ccccc3n2)CC1`, the outcome with Plasmodium falciparum [1], in the data set on Plasmodium falciparum [8] and in the data set with Plasmodium falciparum [9] was Active. In addition, the IC50 in the data set on Plasmodium falciparum [2] turned out to be 3.42 µM; in data set [4], 5.4 µM; in data set [7], 6.2 µM; with A549, 82.5 µM; with Plasmodium falciparum [12] it was 5.12 µM. For the same compound, the selectivity ratio was 16.1 in [3], 24.1 in data set [5], above 292 in data set [6] and above 195 in data set [13]. Further, the Activity entry in data set [10] is “Non-toxic”. Also, in data set [11], the “Ratio IC50” value is listed as 0.66. Besides, in data set [14], the IC50 at 72 h was above 1000 µM.
As to `CC(C)C[C@H](NC(=O)[C@@H]1O[C@H]1C(=O)O)C(=O)NCCCCN=C(N)N`, the 50% inhibitory concentration (IC50) in [4] worked out at 0.0544 µM; in data set [7], 0.116 µM.
